Measurements taken from patent US11298314B2, “Injectable composition for localized fat reduction without pain, edema, and side effects, and method for preparing same” (AMI PHARM CO., LTD., priority 2017, dated 2022).
Each block holds one compound with its values, some of them ahead of it.

How the values were obtained:
inguinal fat pad = details: 0.2 ml s.c. once into inguinal fat pad, 8 days post-injection
paw of the rats = assay: Rat paw edema; type: in vivo, Sprague Dawley rats; details: for degree of edema in words: 2 hours after administration, rat paw; for degree of edema, 1 hour after administration / degree of edema, 2 hours after administration / degree of edema, Immediately after administration: 0.1 ml into rat paw
Method: (§1) To evaluate the degree of edema, each test compositions described above were injected into the paw of the rats. Specifically, male Sprague Dawley rats (6 weeks old) were purchased and used after one week of adaptation. The rats (body weight: 170˜200 g) were randomly selected and the thickness of the rat paw were measured with a caliper before the administration of the test compositions. In order to observe the edema, 0.1 ml of PBS and the various test compositions were administered to the paws of the rats. Measurements of the […] were performed by a caliper immediately before the injection, immediately after the injection, and 1 or 2 hours after the injection. In addition, when the thickness was measured, the skin lesion of the injection site was observed by photographing the sole of the paw (using a 4×4 cm scale).
The degree of edema was evaluated as 0 to 4 grades.

sole of the rat paws = assay: Measurement of skin lesion (erythema) on rat paw; type: in vivo, Sprague Dawley rats;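 also: grades − to ++++ mean no to extremely severe erythema versus before injection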
Method: as §1
The grades of skin lesion were evaluated as 0 to 4 grades.

[1] = tested on: tissues of the injected area (rat paw); assay: H&E staining histological test (inflammation) of injected rat paw; type: in vivo, Sprague Dawley rats
Method: The tissues of the injected area were dissected, fixed with 10% formalin, and then the specimen was prepared and images were captured using an optical microscope. The degree of inflammation was evaluated as follows.

3T3-L1 adipocytes = assay: Adipocyte (3T3-L1) reducing effect, MTT assay; type: cell-based; details: 24 to 96 hours, various concentrations
Method: Tests were performed to compare the adipocyte reducing activity of the PPC single composition and the PPC composition solubilized with bile acids. Differentiated 3T3L-1 adipocyte lines were used to observe adipocyte reduction activity, and cell viability was monitored by MTT assay. […] Materials and methods employed in the following experiments are described below. In the following, % of the composition refers to % (w/v).
The specific test methods are as follows. […] The cells were washed twice with PBS, treated with MTT reagent (50 μl) and left at 37° C. for 2 hours. After removing the supernatant, MTT formazan crystals were dissolved in DMSO and the absorbance was measured at 540 nm using a microplate reader.
The 3T3-L1 adipocyte (ATCC) was cultured in Dulbecco's modified eagle medium (DMEM) (Invitrogen) supplemented with 10% fetal bovine serum, 100 units/ml penicillin and 100 μg/ml streptomycin under the condition of 5% CO2 and 37° C. […] Subsequently, the medium was replaced with DMEM medium containing 1 μg/ml insulin (Sigma), and the culture medium was maintained and changed every 2 to 3 days until the degree of differentiation reaches maximum. If it took more than 7 days, the cells were kept in normal DMEM culture medium until starting the tests. […] After the cells were incubated for 3 hours under the condition of 37° C. and 5% CO2, the MTT solution was removed.

[2] = Formulation stability of PPC injectable preparations: property, transparency, particle size, pH
[3] = bile acid single composition 1.0% (w/v)
[4] = bile acid single composition 2.5% (w/v)
[5] = bile acid single composition 5.0% (w/v)
[6] = bile acid single composition 7.5% (w/v)

SMILES: CC(C)NCC(O)c1ccc(O)c(O)c1 (stereo not drawn) [Isuprel]
histological change of adipocytes in fat tissue (inguinal fat pad): size of the adipocytes was reduced

degree of edema in words (paw of the rats; listed as TUCA 1.0%): Mild
degree of edema in words (paw of the rats; listed as TUCA 2.5%): Mild
degree of edema in words (paw of the rats; listed as TUDCA 1.0%): mild
degree of edema in words (paw of the rats; listed as TUDCA 2.5%): mild
degree of edema in words (paw of the rats; listed as TUDCA 5.0%): moderate
degree of edema in words (paw of the rats; listed as TUDCA 7.5%): Moderate
grade of skin lesion (erythema), 1 hour after administration (sole of the rat paws; [3]): −
grade of skin lesion (erythema), 2 hours after administration (sole of the rat paws; [3]): −
grade of skin lesion (erythema), Immediately after administration (sole of the rat paws; [3]): −
grade of skin lesion (erythema), 1 hour after administration (sole of the rat paws; [4]): −
grade of skin lesion (erythema), 2 hours after administration (sole of the rat paws; [4]): −
grade of skin lesion (erythema), Immediately after administration (sole of the rat paws; [4]): −
grade of skin lesion (erythema), 1 hour after administration (sole of the rat paws; [5]): −
grade of skin lesion (erythema), 2 hours after administration (sole of the rat paws; [5]): −
grade of skin lesion (erythema), Immediately after administration (sole of the rat paws; [5]): −
grade of skin lesion (erythema), 1 hour after administration (sole of the rat paws; [6]): −
grade of skin lesion (erythema), 2 hours after administration (sole of the rat paws; [6]): −
grade of skin lesion (erythema), Immediately after administration (sole of the rat paws; [6]): −
Inflammation (H&E), BA % (w/v) 1.0 ([1]; bile acid single composition 1.0% (w/v), injected rat paw): −
Inflammation (H&E), BA % (w/v) 2.5 ([1]; bile acid single composition 2.5% (w/v), injected rat paw): −
Inflammation (H&E), BA % (w/v) 5.0 ([1]; bile acid single composition 5.0% (w/v), injected rat paw): −
Inflammation (H&E), BA % (w/v) 7.5 ([1]; bile acid single composition 7.5% (w/v), injected rat paw): +
degree of inflammation (H&E) in words ([1]; rats sacrificed at 3 hours, injected paw): Mild
bile acid/PPC molar ratio below which a substantially stable formulation did not occur ([2]; PPC 5.0%): less than 1.29
bile acid concentration at which stable injectable preparations can be made ([2]; based on PPC 5.0%): ≥ 4.0%
SMILES: C[C@H](CCC(=O)NCCS(=O)(=O)O)[C@H]1CC[C@H]2[C@@H]3[C@@H](O)C[C@@H]4C[C@H](O)CC[C@]4(C)[C@H]3CC[C@]12C [TUDCA, 2-[[(4R)-4-[(3R,5S,7S,8R,9S,10S,13R,14S,17R)-3,7-dihydroxy-10,13-dimethyl-2,3,4,5,6,7,8,9,11,12,14,15,16,17-tetradecahydro-1H-cyclopenta[a]phenanthren-17-yl]pentanoyl]amino]ethanesulfonic acid]
degree of edema, 1 hour after administration (paw of the rats; [3]): + (mild edema [+, (the degree of swelling was 1-20% compared to before the injection)])
degree of edema, 2 hours after administration (paw of the rats; [3]): + (mild edema [+, (the degree of swelling was 1-20% compared to before the injection)])
degree of edema, Immediately after administration (paw of the rats; [3]): ++ (moderate edema [++, (the degree of swelling was 20-40% compared to before the injection)])
degree of edema, 1 hour after administration (paw of the rats; [4]): + (mild edema [+, (the degree of swelling was 1-20% compared to before the injection)])
degree of edema, 2 hours after administration (paw of the rats; [4]): + (mild edema [+, (the degree of swelling was 1-20% compared to before the injection)])
degree of edema, Immediately after administration (paw of the rats; [4]): ++ (moderate edema [++, (the degree of swelling was 20-40% compared to before the injection)])
degree of edema, 1 hour after administration (paw of the rats; [5]): + (mild edema [+, (the degree of swelling was 1-20% compared to before the injection)])
degree of edema, 2 hours after administration (paw of the rats; [5]): ++ (moderate edema [++, (the degree of swelling was 20-40% compared to before the injection)])
degree of edema, Immediately after administration (paw of the rats; [5]): ++ (moderate edema [++, (the degree of swelling was 20-40% compared to before the injection)])
degree of edema, 1 hour after administration (paw of the rats; [6]): ++ (moderate edema [++, (the degree of swelling was 20-40% compared to before the injection)])
degree of edema, 2 hours after administration (paw of the rats; [6]): ++ (moderate edema [++, (the degree of swelling was 20-40% compared to before the injection)])
degree of edema, Immediately after administration (paw of the rats; [6]): ++ (moderate edema [++, (the degree of swelling was 20-40% compared to before the injection)])
adipocyte viability / adipocyte-reducing activity (3T3-L1 adipocytes): inhibits the adipocyte apoptosis and degradation
